Results as given in patent US10421820B2, “Bruton's tyrosine kinase as anti-cancer drug target” (The Research Foundation for The State University of New York, priority 2008, dated 2019).
“Also recorded” adds a separate entry of the source.

Legend:
BTK-A and BTK-C proteins = assay: BTK Tyr223 auto-phosphorylation, anti-Flag IP and Western blot in BT474 cells over-expressing BTK-A-flag or BTK-C-flag; type: cell-based, human
BT474 cells [1] = assay: Cleaved caspase-3 apoptosis assay in BT474 cells; type: cell-based, human
Method: For high-throughput experiments, cells grown on 96-well plates were washed once with 1×PBS, fixed with 2.5% formaldehyde and stained with Hoechst 33342 (Molecular Probes-Invitrogen). Cell images were acquired using an In Cell Analyzer 1000 (GE Healthcare) high content imaging system, with a 20× objective. At least 50 fields were imaged per single experiment. Cell counts and statistics were then performed using the In Cell Investigator 3.4 high-content image analysis software (GE Healthcare). Apoptosis was detected by cleaved Caspase-3 after 48 h to 96 h of shRNA treatments. […] Control cells were treated with DMSO. For the cleaved caspase-3 assay, cells were fixed after treatment with 2.5% formaldehyde, washed with 1×PBS, permeabilized with 0.1% Triton-X 100 (Fisher Chemicals), blocked with 3% normal goat serum (Sigma-Aldrich), incubated with a 1:50-1:200 dilution of the primary antibody, washed with 1×PBS, incubated with a 1:800 dilution of the secondary antibody, washed again with 1×PBS and finally stained with Hoechst 33342 (Molecular Probes-Invitrogen). Cells were imaged by the In Cell Analyzer 1000 (GE Healthcare) or by a Leica TCS SP5 confocal microscope system (Leica Microsystems). At least 500 cells were counted for cleaved Caspase-3. […]

[2] = tested on: MCF-7 and MDA-MB-361 cell lines; assay: 2-NBDG glucose uptake in breast cancer cell lines; type: cell-based, human; conditions: breast cancer cell lines that express BTK-C; LFM-A13 for 24 hours
Method: (§1) FIG. 15A-15D. BTK-C promotes glucose uptake. […] Immunofluorescence pictures were taken in INCELL-1000; (15d) Fluorescence intensity was quantified in right. […] (15a) The effect of BTK-C on glucose uptake in breast cancer cell lines. MCF-7 and MDA-MB-361 cell lines were treated as in (15c). (15b) Fluorescence intensity shown at right panel, *p<0.01.

10A-BTK-C cells = assay: 2-NBDG glucose uptake in MCF-10A cells over-expressing BTK-C; type: cell-based, human; conditions: LFM-A13 for 24 hours
Method: as §1

[3] = tested on: MCF-10A cells over-expressing BTK-C; conditions: 35 μM LFM-A13 for 24
[4] = tested on: HER2+ breast cancer cells; assay: Growth factor-driven lapatinib resistance in HER2+ breast cancer cells (NRG, EGF); type: cell-based, human
SKBR3 xenograft = SKBR3 xenograft tumor growth in NOD/SCID mice (mammary fat pad injection); type: in vivo; conditions: 12 mg/kg, day 28, p<0.01
MDA-MB-231 cells = assay: MDA-MB-231 tail vein metastasis model in NOD/SCID mice; type: in vivo; conditions: 12 mg/kg per day, oral
Method: FIG. 24A-24D. […] (24A) 10^6 MDA-MB-231 cells in 100 μl PBS were injected into the tail vein of 4-5 week old female NOD/SCID mice (Jackson Labs). Injected animals were randomly assigned to control or experimental groups. Starting at time of tail vein injection, mice were treated with vehicle or ibrutinib (12 mg/kg per day, oral). At end point, mice were euthanized and bones and organs collected for histological analysis. Note that all bone metastases in control groups led to the development of paralysis (5/16, n=16 per group). […] Thin section of a tumor arising in an untreated control animal.
More specifically, 10^6 MDA-MB-231 (Her2-) cells in 100 μl PBS were injected into the tail vein of 4-5 week old female NOD/SCID mice (Jackson Labs). Injected animals were randomly assigned to control or experimental groups. Starting at time of tail vein injection, mice were treated with vehicle or ibrutinib (12 mg/kg per day, oral). At end point, mice were euthanized then bones and organs collected for histological analysis. Note that bone metastases in control groups led to the development of paralysis (5/16, n=16 per group).

[5] = tested on: SK-Br-3 Her2/neu positive breast cancer cells; assay: SKBR3 cell number after 72 hours with or without EGF; type: cell-based, human; conditions: 50 ng/ml EGF
[6] = tested on: HER2, AKT and ERK phosphorylation; assay: Immunoblots of HER2, AKT and ERK phosphorylation in SKbr3 cells with or without EGF; type: cell-based, human; conditions: 1 μM, EGF 50 ng/ml, 3 hours
BTK-C-flag protein = BTK-C-flag protein knockdown by immunoblot in HEK 293T cells with BTK-C specific siRNAs; type: cell-based, human; conditions: transfected HEK 293T cells
Method: (§2) FIG. 12A-12D. The BTK-C gene produces an 80 kD product. (12a) A schematic representation showing the domains of the BTK-A and predicted BTK-C protein. (12b) Total lysate from breast lines and Namalwa B-cells subjected to immunoblotting and probed with an anti-BTK antibody (BD Transduction Laboratory, 611116). (12c) HEK293 cells co-transfected with a BTK-C flag vector and either BTK-C siRNAs or Non-Target siRNA. Total lysate was prepared 96 hrs post transfection and was used for immunoblotting with anti-Flag antibody. (12d) BT474 cells were transfected with two BTK-C specific siRNAs, non-target siRNA as a control and co-transfected with GFP to mark transfected cells. Transfected cells were counted at 24 h and 96 h and the 96 hr to 24 hr ratio was calculated and expressed as % of the control.

BT474 cells [7] = assay: BT474 viability after BTK-C specific siRNAs (GFP-marked cell counts, 96 h to 24 h ratio); type: cell-based, human
Method: as §2

C/C(O)=C(\C#N)C(=O)Nc1cc(Br)ccc1Br [LFM-A13]
phosphorylation of both the BTK-A and BTK-C proteins (BTK-A and BTK-C proteins; 35 μM LFM-A13 for 48 h): significantly impedes phosphorylation
phosphorylation of BTK-A and BTK-C proteins (pY223) (BTK-A and BTK-C proteins; 100 μM LFM-A13 for 45 mins): severely impeded phosphorylation; also recorded: reduces phosphorylation of BTK
increase of apoptosis levels compared to control (BT474 cells [1]; 25 uM LFM-A13, BT474 cells): 8%
increase of apoptosis levels compared to control (BT474 cells [1]; 35 μM LFM-A13, BT474 cells, 48 h): six fold
glucose uptake (2-NBDG fluorescence) [2]: inhibits glucose uptake
glucose uptake (2-NBDG fluorescence) (10A-BTK-C cells): inhibited
acquired resistance to Doxorubicin (1 μM) [3]: abolishes the acquired resistance to Doxorubicin

C=CC(=O)Nc1cccc(Nc2nc(Nc3ccc(OCCOC)cc3)ncc2F)c1 [AVL-292]
EGFR family activation [4]: has no effect on EGFR family activation
NRG- and EGF-dependent growth factor-driven resistance to lapatinib [4]: prevents NRG- and EGF-dependent growth factor-driven resistance to lapatinib

C=CC(=O)N1CCC[C@@H](n2nc(-c3ccc(Oc4ccccc4)cc3)c3c(N)ncnc32)C1 [Ibrutinib]
tumor volumes smaller than vehicle control (SKBR3 xenograft): 45%
decrease of non-lung metastases (MDA-MB-231 cells): 3 fold

CS(=O)(=O)CCNCc1ccc(-c2ccc3ncnc(Nc4ccc(OCc5cccc(F)c5)c(Cl)c4)c3c2)o1 [Lapatinib]
effect of EGF treatment on drug activity (cell number) [5]: EGF treatment counteracts lapatinib to a much larger degree than PCI-32765
ERK activation in the presence of EGF [6]: EGF counteracts lapatinib's effect, causing ERK re-activation

siRNA2: BTK-C specific siRNA, sense SEQ ID NO: 68, antisense SEQ ID NO: 69 (sense CAACAAAUGGUUAUUGGAUUU; antisense AUCCAAUAACCAUUUGUUGUU; chemistry not given here; listed as Homo sapiens)
BTK-C-flag protein expression (BTK-C-flag protein): reduce BTK-C-flag protein expression
viability of BT474 cells (BT474 cells [7]): decrease the viability
